According to US10130668B2, “Composition comprising Dendropanax morbifera extract or compound derived therefrom as active ingredient for preventing and treating benign prostatic hyperplasia” (priority 2012, dated 2018):
Several values for one entry are separate records, joined by “and”; a condition that tells them apart may be missing. Identical values can stand only once. Entries after “also recorded” stand apart in the source; their conditions may differ.

Legend:
[1] = test system: mouse model with benign prostatic hyperplasia; assay: Prostate size in testosterone-induced benign prostatic hyperplasia animal model; format: in vivo, Sprague Dawley mice
Experimental: First of all, the animals used for experiments were 11-week old male Sprague Dawley mice, which were purchased from Damul Science Co. (Daejeon, Republic of Korea). […] As a positive control group, the finasteride (2 mg/kg/day) was used and the Dendropanax morbifera extract was administered for 2 groups (0.5 and 2 mg/kg). 3 weeks after the drug administration, the mice were sacrificed and the results were observed. V, vehicle administration group; CTL, control group; TP, testosterone-propionate administration group; FS, finasteride administration group; […] CMC, carboxymethylcellulose administration group. […] From the previously described experiment schedule, blood and prostate were collected after measuring the body weight and sacrificing on the day after the last day of administration. The weight of removed prostate was measured after removing the surrounding fats and foreign substances and the weight ratio of prostate to body was calculated by the following equation and the result is listed in Table 4.

[2] = test system: PSA (prostate specific antigen); assay: PSA content in blood of benign prostatic hyperplasia animal model (ELISA); format: in vivo, Sprague Dawley mice; settings: TP + drug 2 mg/kg
Description: First of all, the animals used for experiments were 11-week old male Sprague Dawley mice, which were purchased from Damul Science Co. (Daejeon, Republic of Korea). They were provided with hard food and water frequently and were used in experiments after a week of adaptation period for laboratory environment and the animal experiments conducted herein were approved by Chonnam National University animal experiment ethics committee (IRB) (CNU IACUC-YB-R-2012-9).
The male Sprague Dawley mice were divided into the groups such as vehicle control group (V-CTL) that is an experimental group, the group administered with testosterone only (TP-CTL), the group administered with finasteride as positive control for testosterone (TP+FS) and the groups administered with Dendropanax morbifera (TP+DMH), and for each group, n was equal to 4 and overall experimental procedure is as illustrated in Table 3. […] As a positive control group, the finasteride (2 mg/kg/day) was used and the Dendropanax morbifera extract was administered for 2 groups (0.5 and 2 mg/kg).
From the sacrificed mouse in the above example, the plasma was isolated from blood and the content of PSA was determined. PSA measurement was conducted using ELISA (MyBiosource, Arizona, USA) according to the manufacturer's experimental protocol and presented as pg/mL content.

[3] = test system: PSA (prostate specific antigen) mRNA, AR target gene; assay: PSA mRNA expression in LNCaP⋅FGC cells; settings: 48 hours
Experimental: For the analysis of anti-androgen activity, the LNCaP⋅FGC cells, an androgen-dependent prostate cancer cell line, were used and the level of mRNA of PSA (Prostate specific antigen), which is one of the AR target genes, in prostate cancer was measured.

CC(C)(C)NC(=O)[C@H]1CC[C@H]2[C@@H]3CC[C@H]4NC(=O)C=C[C@]4(C)[C@H]3CC[C@]12C [FS, finasteride]
Weight of prostate ([1]; TP 3 mg/kg s.c. + drug 2 mg/kg p.o. daily for 3 weeks): 0.95 ± 0.12 g
prostate %/body weight (w/w) ([1]; TP + drug 2 mg/kg p.o.): *0.22 ± 0.018%
% TP-CTL ratio ([1]; TP + drug 2 mg/kg p.o., relative to testosterone-only control): 74.3% and 74.3 ± 3.2%
% V-CTL ratio ([1]; TP + drug 2 mg/kg p.o., relative to vehicle control): 185.7 ± 15.1%
% Vehicle control ([2]; blood PSA): 18.7 ± 5.0%
% TP control ([2]; blood PSA, relative to TP (3 mg/kg) only): 34.6%
PSA ([2]; plasma): *323.0 ± 85.0 pg/mL

C=CC(O)C#CC#CC/C=C\CCCCCCCC(=O)O (stereo not shown) [HS7, (9Z)-16-hydroxy-9,17-octadecadiene-12,14-diynoic acid]
mRNA expression of PSA [3]: inhibit; also recorded: most effective

C=C[C@H](O)C#CC#CC=CC(O)CCCCCCCC(=O)O (stereo partly drawn) [HS3, 9,16S-dihydroxy-10,17-octadecadiene-12,14-diynoic acid]
mRNA expression of PSA [3]: inhibit

C=CC(O)C#CC#CC=C[C@H](O)CCCCCCCC(=O)O (stereo partly drawn) [HS5, 9,16R-dihydroxy-10,17-octadecadiene-12,14-diynoic acid]
mRNA expression of PSA [3]: inhibit
